Experiments:
Assay in all cases: preemergence treatment in the greenhouse, % damage
Sorgh. bicol. = type: in vivo, Sorghum bicolor
Description: (§1) The vessels employed were plastic flowerpots having a volume of 300 cm^3; the substrate was a sandy loam containing about 1.5% humus. The seeds of the test plants (see Table 1) were sown shallow, and separated according to species. In the case of Cyperus esculentus, pregerminated tubers were planted. In the preemergence treatment, the active ingredients were then immediately applied to the surface of the soil. They were suspended or emulsified in water as the vehicle, and sprayed through atomizing nozzles. After the agents had been applied, the vessels were lightly sprinkler-irrigated to set germination and growth going, and to activate the chemical agents. The vessels were then covered with transparent plastic hoods until the plants had taken root. This cover ensured uniform germination of the test plants (to the extent that this was not impaired by the chemicals), and prevented readily volatile substances from evaporating.
(§2) For postemergence treatment, the plants were first grown to a height of from 3 to 10 cm, depending on their habit, before treated. Hoods were not placed on the pots. The experiments were set up in the greenhouse, hotter areas (25° to 40° C.) being preferred for heat-loving species, and 15° to 30° C. for plants from moderate climates. The experiments were carried out for from 4 to 6 weeks. During this period the plants were tended and their reaction to the various treatments was assessed. The following tables contain the substances investigated, the application rates in kg/ha of active ingredient, and the test plant species. Assessments were made on a 0 to 100 scale, 0 denoting no damage or normal emergence, and 100 denoting no emergence or complete destruction of at least the visible plant parts.

Glyc. max = type: in vivo, Glycine max
Description: as §1, §2

Amar. retro. = type: in vivo
Description: as §1, §2

Zea mays = type: in vivo
Description: as §1, §2

Alopec. myosur. = type: in vivo
Description: as §1, §2

Setaria spp. = type: in vivo
Description: as §1, §2

Beta vulg. = type: in vivo, Beta vulgaris
Description: as §1, §2

Echin. c.g. = type: in vivo
Description: as §1, §2

Cyp. diff. = type: in vivo
Description: as §1, §2

Sorgh. halep. = type: in vivo
Description: as §1, §2

Bromus spp. = type: in vivo
Description: as §1, §2

Matric. spp. = type: in vivo
Description: as §1, §2

Gossyp. hirs. = type: in vivo, Gosspyium hirsutum
Description: as §1, §2

Solanum nigrum = type: in vivo
Description: as §1, §2

Euph. gen. = type: in vivo
Description: as §1, §2

Cyper. escul. = type: in vivo, Cyperus esculentus
Description: as §1, §2

CCc1cccc(C)c1N(Cn1nc(C)c(Cl)c1C)C(=O)CCl [Compound 107]
% damage (Sorgh. bicol.; 2.0 kg/ha): 85%
% damage (Glyc. max; 2.0 kg/ha): 0%
% damage (Amar. retro.; 2.0 kg/ha): 95%
% damage (Zea mays; 2.0 kg/ha): 0%
% damage (Alopec. myosur.; 2.0 kg/ha): 95%
% damage (Setaria spp.; 2.0 kg/ha): 95%
% damage (Beta vulg.; 2.0 kg/ha): 0%

Cc1cc(C)c(N(Cn2nc(C)cc2C)C(=O)CCl)c(C)c1 [Compound 46]
% damage (Amar. retro.; 1.0 kg/ha): 90%
% damage (Echin. c.g.; 1.0 kg/ha): 100%
% damage (Cyp. diff.; 1.0 kg/ha): 100%
% damage (Alopec. myosur.; 1.0 kg/ha): 60%
% damage (Sorgh. halep.; 1.0 kg/ha): 80%
% damage (Setaria spp.; 1.0 kg/ha): 100%

CCc1cccc(C)c1N(Cn1cc(Cl)cn1)C(=O)CCl
% damage (Bromus spp.; 1.0 kg/ha): 90%
% damage (Matric. spp.; 1.0 kg/ha): 60%
% damage (Echin. c.g.; 1.0 kg/ha): 100%
% damage (Alopec. myosur.; 1.0 kg/ha): 90%
% damage (Setaria spp.; 1.0 kg/ha): 85%
% damage (Beta vulg.; 1.0 kg/ha): 0%

CCc1cccc(CC)c1N(Cn1cncn1)C(=O)CCl [Compound 130]
% damage (Gossyp. hirs.; 0.5 kg/ha): 20%
% damage (Gossyp. hirs.; 1.0 kg/ha): 30%
% damage (Gossyp. hirs.; 2.0 kg/ha): 30%
% damage (Glyc. max; 0.5 kg/ha): 20%
% damage (Glyc. max; 1.0 kg/ha): 20%
% damage (Glyc. max; 2.0 kg/ha): 20%
% damage (Amar. retro.; 0.5 kg/ha): 95%
% damage (Amar. retro.; 1.0 kg/ha): 100%
% damage (Amar. retro.; 2.0 kg/ha): 100%
% damage (Solanum nigrum; 0.5 kg/ha): 100%
% damage (Solanum nigrum; 1.0 kg/ha): 100%
% damage (Solanum nigrum; 2.0 kg/ha): 100%
% damage (Echin. c.g.; 0.5 kg/ha): 95%
% damage (Echin. c.g.; 1.0 kg/ha): 100%
% damage (Echin. c.g.; 2.0 kg/ha): 100%
% damage (Euph. gen.; 0.5 kg/ha): 60%
% damage (Euph. gen.; 1.0 kg/ha): 60%
% damage (Euph. gen.; 2.0 kg/ha): 100%
% damage (Setaria spp.; 0.5 kg/ha): 85%
% damage (Setaria spp.; 1.0 kg/ha): 95%
% damage (Setaria spp.; 2.0 kg/ha): 100%
% damage (Cyper. escul.; 0.5 kg/ha): 40%
% damage (Cyper. escul.; 1.0 kg/ha): 70%
% damage (Cyper. escul.; 2.0 kg/ha): 80%

CCc1cccc(C)c1N(Cn1cc(C)cn1)C(=O)CCl
% damage (Echin. c.g.; 3.0 kg/ha): 100%

CCc1cccc(CC)c1N(Cn1cccn1)C(=O)CCl [Compound 8]
% damage (Bromus spp.; 0.25 kg/ha): 100%
% damage (Amar. retro.; 0.25 kg/ha): 95%
% damage (Sorgh. halep.; 0.25 kg/ha): 85%

Cc1cc(C)n(CN(C(=O)CCl)c2c(C)cccc2C(C)C)n1 [Compound 42]
% damage (Amar. retro.; 1.0 kg/ha): 100%
% damage (Echin. c.g.; 1.0 kg/ha): 100%
% damage (Cyp. diff.; 1.0 kg/ha): 100%
% damage (Alopec. myosur.; 1.0 kg/ha): 95%
% damage (Sorgh. halep.; 1.0 kg/ha): 90%
% damage (Setaria spp.; 1.0 kg/ha): 100%

CCc1cccc(CC)c1N(Cn1nc(C)c(Cl)c1C)C(=O)CCl [Compound 108]
% damage (Amar. retro.; 2.0 kg/ha): 100%
% damage (Echin. c.g.; 2.0 kg/ha): 100%
% damage (Cyp. diff.; 2.0 kg/ha): 100%
% damage (Alopec. myosur.; 2.0 kg/ha): 70%
% damage (Sorgh. halep.; 2.0 kg/ha): 60%
% damage (Setaria spp.; 2.0 kg/ha): 90%

Cc1cc(C)n(CN(C(=O)CCl)c2c(C(C)C)cccc2C(C)C)n1 [Compound 44]
% damage (Amar. retro.; 2.0 kg/ha): 80%
% damage (Echin. c.g.; 2.0 kg/ha): 90%
% damage (Cyp. diff.; 2.0 kg/ha): 100%
% damage (Alopec. myosur.; 2.0 kg/ha): 80%
% damage (Sorgh. halep.; 2.0 kg/ha): 40%
% damage (Setaria spp.; 2.0 kg/ha): 90%

Cc1cc(C)n(CN(C(=O)CCl)c2ccccc2C(C)C)n1 [Compound 37]
% damage (Amar. retro.; 1.0 kg/ha): 100%
% damage (Echin. c.g.; 1.0 kg/ha): 100%
% damage (Cyp. diff.; 1.0 kg/ha): 100%
% damage (Alopec. myosur.; 1.0 kg/ha): 30%
% damage (Sorgh. halep.; 1.0 kg/ha): 80%
% damage (Setaria spp.; 1.0 kg/ha): 100%

Cc1cnn(CN(C(=O)CCl)c2c(C)cccc2C)c1
% damage (Glyc. max; 0.5 kg/ha): 0%
% damage (Glyc. max; 1.0 kg/ha): 10%
% damage (Bromus spp.; 0.5 kg/ha): 95%
% damage (Bromus spp.; 1.0 kg/ha): 95%
% damage (Matric. spp.; 0.5 kg/ha): 100%
% damage (Matric. spp.; 1.0 kg/ha): 100%
% damage (Echin. c.g.; 0.5 kg/ha): 98%
% damage (Echin. c.g.; 1.0 kg/ha): 98%
% damage (Alopec. myosur.; 0.5 kg/ha): 90%
% damage (Alopec. myosur.; 1.0 kg/ha): 95%
% damage (Setaria spp.; 0.5 kg/ha): 92%
% damage (Setaria spp.; 1.0 kg/ha): 100%
% damage (Beta vulg.; 0.5 kg/ha): 0%
% damage (Beta vulg.; 1.0 kg/ha): 0%

Cc1cccc(N(Cn2cncn2)C(=O)CCl)c1C [Compound 139]
% damage (Amar. retro.; 2.0 kg/ha): 40%
% damage (Echin. c.g.; 2.0 kg/ha): 90%
% damage (Cyp. diff.; 2.0 kg/ha): 90%
% damage (Alopec. myosur.; 2.0 kg/ha): 70%
% damage (Sorgh. halep.; 2.0 kg/ha): 50%
% damage (Setaria spp.; 2.0 kg/ha): 30%

Cc1cc(C)n(CN(C(=O)CCl)c2ccccc2)n1 [Compound 34]
% damage (Sorgh. bicol.; 1.0 kg/ha): 0%
% damage (Sorgh. bicol.; 2.0 kg/ha): 10%
% damage (Glyc. max; 1.0 kg/ha): 0%
% damage (Glyc. max; 2.0 kg/ha): 0%
% damage (Bromus spp.; 1.0 kg/ha): 95%
% damage (Bromus spp.; 2.0 kg/ha): 95%
% damage (Amar. retro.; 1.0 kg/ha): 100%
% damage (Amar. retro.; 2.0 kg/ha): 100%
% damage (Echin. c.g.; 1.0 kg/ha): 90%
% damage (Echin. c.g.; 2.0 kg/ha): 90%
% damage (Zea mays; 1.0 kg/ha): 0%
% damage (Zea mays; 2.0 kg/ha): 0%
% damage (Setaria spp.; 1.0 kg/ha): 80%
% damage (Setaria spp.; 2.0 kg/ha): 95%

From US4593104A, “2-halo-N-(azole-1-yl-methyl)-substituted acetanilides” (BASF Aktiengesellschaft, priority 1976, dated 1986)
